Source: ChEMBL document CHEMBL1201862, “PubChem BioAssay data set” (2004)
Values belong to the compound of their own block, whether it stands above or below them. Active and inactive are the calls of the source.

Columns and labels:
Cytochrome P450 2C9 = Cytochrome P450 2C9 (Homo sapiens, UniProt P11712)
Cytochrome P450 1A2 = target: T1, Cytochrome P450 1A2 (Homo sapiens, UniProt P05177);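 further: PubChem cytochrome P450 panel assay, CYP1A2 panel member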
T1 sequence (P05177 whole entry): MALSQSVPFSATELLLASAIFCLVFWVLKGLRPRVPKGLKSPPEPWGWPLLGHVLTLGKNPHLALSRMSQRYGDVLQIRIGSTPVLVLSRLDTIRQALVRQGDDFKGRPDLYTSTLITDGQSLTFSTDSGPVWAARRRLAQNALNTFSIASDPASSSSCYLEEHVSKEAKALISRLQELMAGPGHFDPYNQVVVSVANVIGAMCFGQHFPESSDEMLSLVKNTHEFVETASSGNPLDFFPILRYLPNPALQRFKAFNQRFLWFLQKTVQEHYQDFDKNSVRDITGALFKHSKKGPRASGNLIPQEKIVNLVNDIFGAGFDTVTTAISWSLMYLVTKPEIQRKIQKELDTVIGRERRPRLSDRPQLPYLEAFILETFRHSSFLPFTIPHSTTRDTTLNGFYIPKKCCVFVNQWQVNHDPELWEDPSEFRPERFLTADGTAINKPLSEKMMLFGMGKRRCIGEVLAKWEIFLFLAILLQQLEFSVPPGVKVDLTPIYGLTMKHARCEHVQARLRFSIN

[1] = target: T2, Heat shock factor protein 1 (Mus musculus, UniProt P38532); experiment: HSF1 potentiators in luciferase reporter cells, confirmation, cell-based, NIH3T3, luminescence, dose retest (AID 435004); format: functional;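 further: stress induced by proteasome inhibitor MG132 added 30 min after compound; luciferase reporter driven by HSF1 response element in NIH3T3 cells; actives raise luminescence as potentiators of the MG132 stress response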
T2 sequence (P38532 whole entry): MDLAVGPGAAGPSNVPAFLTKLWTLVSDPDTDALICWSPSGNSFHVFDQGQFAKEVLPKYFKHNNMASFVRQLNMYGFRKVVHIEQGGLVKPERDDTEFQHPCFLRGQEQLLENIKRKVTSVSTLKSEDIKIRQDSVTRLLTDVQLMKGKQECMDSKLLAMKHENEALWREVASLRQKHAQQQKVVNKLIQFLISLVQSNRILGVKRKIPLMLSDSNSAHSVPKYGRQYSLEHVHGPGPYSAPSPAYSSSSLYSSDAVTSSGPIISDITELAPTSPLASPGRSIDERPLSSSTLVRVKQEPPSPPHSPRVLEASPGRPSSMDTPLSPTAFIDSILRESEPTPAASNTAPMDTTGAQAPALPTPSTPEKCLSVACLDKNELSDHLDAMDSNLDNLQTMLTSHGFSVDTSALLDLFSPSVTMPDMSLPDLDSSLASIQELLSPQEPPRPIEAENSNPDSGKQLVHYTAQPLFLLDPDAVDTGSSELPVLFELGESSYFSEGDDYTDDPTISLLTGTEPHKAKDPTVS

Cytochrome P450 2C19 = Cytochrome P450 2C19 (Homo sapiens, UniProt P33261); experiment: Cytochrome panel assay with activity outcomes. Panel member name: p450-cyp2c19 Compounds with AC50 equal or less than 10 uM are considered active; format: functional; conditions: read-out: AC50
Cytochrome P450 2C19, sequence (P33261 whole entry): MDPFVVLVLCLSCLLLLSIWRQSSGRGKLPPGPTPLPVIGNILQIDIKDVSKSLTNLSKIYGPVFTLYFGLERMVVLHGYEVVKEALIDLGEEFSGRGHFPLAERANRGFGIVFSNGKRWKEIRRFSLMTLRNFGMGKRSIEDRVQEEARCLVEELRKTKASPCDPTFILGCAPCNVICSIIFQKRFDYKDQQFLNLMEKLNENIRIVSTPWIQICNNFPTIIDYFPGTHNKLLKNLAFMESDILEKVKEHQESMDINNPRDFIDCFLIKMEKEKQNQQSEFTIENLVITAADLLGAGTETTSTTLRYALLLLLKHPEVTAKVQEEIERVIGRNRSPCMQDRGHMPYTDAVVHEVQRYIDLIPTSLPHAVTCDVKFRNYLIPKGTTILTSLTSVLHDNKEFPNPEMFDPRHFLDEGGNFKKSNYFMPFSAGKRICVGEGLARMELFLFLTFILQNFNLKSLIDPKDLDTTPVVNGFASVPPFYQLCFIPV

[2] = target: T3, Rac GTPase-activating protein 1 (Homo sapiens, UniProt Q9H0H5); experiment: MgcRacGAP GTPase-activating activity inhibitors, confirmation, biochemical, ADP Hunter fluorescence, primary and confirmatory (AID 624330); format: functional
T3 sequence (Q9H0H5 whole entry): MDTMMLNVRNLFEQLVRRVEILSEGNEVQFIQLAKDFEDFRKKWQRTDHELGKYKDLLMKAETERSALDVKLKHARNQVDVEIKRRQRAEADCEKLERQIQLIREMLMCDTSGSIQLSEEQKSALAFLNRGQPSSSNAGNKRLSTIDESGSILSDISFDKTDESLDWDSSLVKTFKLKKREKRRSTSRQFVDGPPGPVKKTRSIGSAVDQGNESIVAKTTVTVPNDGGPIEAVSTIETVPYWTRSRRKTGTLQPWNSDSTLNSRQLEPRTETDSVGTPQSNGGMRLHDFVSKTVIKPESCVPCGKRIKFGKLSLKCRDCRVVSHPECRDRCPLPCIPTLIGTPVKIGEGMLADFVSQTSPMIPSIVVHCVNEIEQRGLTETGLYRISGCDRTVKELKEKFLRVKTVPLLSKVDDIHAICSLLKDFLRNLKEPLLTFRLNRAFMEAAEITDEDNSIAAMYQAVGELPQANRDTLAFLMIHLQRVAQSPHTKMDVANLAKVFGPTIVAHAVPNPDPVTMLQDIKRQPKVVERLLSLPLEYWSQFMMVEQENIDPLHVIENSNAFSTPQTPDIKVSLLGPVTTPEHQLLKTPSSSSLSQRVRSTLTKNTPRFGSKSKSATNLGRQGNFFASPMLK

[3] = target: T4, Corticotropin-releasing factor receptor 2/Corticotropin-releasing factor-binding protein (Homo sapiens, UniProt P24387+Q13324); experiment: activators of CRF receptor 2 with binding protein – uHTS hits, confirmation (AID 602473); format: functional; conditions: read-out: EC50_Mean
T4 sequence (Q13324 whole entry): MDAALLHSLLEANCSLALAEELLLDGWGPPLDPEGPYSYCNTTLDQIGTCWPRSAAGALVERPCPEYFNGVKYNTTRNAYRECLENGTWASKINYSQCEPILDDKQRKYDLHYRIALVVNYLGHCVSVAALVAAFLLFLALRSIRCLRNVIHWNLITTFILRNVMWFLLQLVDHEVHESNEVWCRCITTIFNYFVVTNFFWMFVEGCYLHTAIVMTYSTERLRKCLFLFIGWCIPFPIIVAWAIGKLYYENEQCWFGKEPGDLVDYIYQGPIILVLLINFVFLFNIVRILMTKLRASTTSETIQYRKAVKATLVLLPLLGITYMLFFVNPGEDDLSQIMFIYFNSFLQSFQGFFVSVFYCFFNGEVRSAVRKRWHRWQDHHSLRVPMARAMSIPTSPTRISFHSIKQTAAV
T4 sequence (P24387 whole entry): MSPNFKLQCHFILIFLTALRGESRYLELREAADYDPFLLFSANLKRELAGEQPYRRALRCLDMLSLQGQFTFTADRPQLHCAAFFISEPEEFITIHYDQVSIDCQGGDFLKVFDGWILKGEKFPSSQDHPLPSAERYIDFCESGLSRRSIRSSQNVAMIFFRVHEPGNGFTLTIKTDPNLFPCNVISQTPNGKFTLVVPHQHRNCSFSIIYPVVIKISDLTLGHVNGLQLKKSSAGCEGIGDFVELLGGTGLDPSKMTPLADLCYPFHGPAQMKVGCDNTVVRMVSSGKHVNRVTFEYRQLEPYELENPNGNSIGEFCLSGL

[4] = HEp-2 cell cytotoxicity, dose response, cytotoxicity control for RSV inhibitor project, HTS (AID 2410); format: functional; conditions: human respiratory syncytial virus
[5] = cytotoxicity toward NIH3T3 fibroblasts, dose response, counter-screen, cell-based, ATP luminescence, mouse fibroblasts (AID 2010); format: functional;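 further: cells exposed to compound for about 90 hours before reading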
[6] = inhibitors of intracellular T. cruzi replication, confirmation, NIH3T3 host cells, beta-gal luminescence (AID 2044); format: functional, cell-based;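 further: intracellular parasites grown in NIH/3T3 mouse fibroblasts as host cells; luminescent beta-galactosidase reporter signal from transgenic T. cruzi replicating inside host cells; inhibitors lower the luminescence signal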
Cytochrome P450 2D6 = Cytochrome P450 2D6 (Homo sapiens, UniProt P10635);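 further: CYP2D6 member of a cytochrome P450 panel assay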
Cytochrome P450 2D6, sequence (P10635 whole entry): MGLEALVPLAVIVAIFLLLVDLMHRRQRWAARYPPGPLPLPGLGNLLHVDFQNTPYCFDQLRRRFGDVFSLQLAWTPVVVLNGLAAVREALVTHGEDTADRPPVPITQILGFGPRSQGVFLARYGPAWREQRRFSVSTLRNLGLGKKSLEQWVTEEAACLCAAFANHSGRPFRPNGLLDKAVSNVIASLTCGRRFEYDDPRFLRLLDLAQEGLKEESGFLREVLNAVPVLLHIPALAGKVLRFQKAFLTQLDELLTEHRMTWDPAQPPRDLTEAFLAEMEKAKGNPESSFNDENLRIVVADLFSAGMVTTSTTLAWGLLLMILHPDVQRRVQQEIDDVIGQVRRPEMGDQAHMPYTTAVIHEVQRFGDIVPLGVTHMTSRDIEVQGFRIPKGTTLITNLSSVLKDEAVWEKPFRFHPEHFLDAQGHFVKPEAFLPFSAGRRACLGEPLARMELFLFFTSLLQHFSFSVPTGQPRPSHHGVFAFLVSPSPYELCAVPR

Cytochrome P450 2C9, sequence (P11712 whole entry): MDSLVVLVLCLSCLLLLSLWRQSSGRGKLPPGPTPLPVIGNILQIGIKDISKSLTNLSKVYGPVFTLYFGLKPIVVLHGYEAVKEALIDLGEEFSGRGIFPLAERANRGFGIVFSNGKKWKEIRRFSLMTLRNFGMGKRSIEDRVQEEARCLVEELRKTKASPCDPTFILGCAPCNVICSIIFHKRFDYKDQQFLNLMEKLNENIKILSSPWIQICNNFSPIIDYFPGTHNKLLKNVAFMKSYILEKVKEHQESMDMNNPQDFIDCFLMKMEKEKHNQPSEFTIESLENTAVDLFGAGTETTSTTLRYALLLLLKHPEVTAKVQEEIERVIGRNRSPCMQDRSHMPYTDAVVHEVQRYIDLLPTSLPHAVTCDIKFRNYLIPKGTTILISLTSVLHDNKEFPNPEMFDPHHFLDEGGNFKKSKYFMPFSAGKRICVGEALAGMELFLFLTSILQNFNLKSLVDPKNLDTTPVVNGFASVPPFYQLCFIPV

AC50 (Cytochrome P450 2C9): 3.16 µM (inconclusive) | AC50 (Cytochrome P450 1A2): 3.16 µM (inconclusive)
Compound: O=C(CCN1CCCCC1)c1csc2ccccc12

EC50 [1]: > 260 µM (inactive) | AC50 (Cytochrome P450 2C9): 1.78 µM (inconclusive) | AC50 (Cytochrome P450 1A2): 14.1 µM (inconclusive) | AC50 (Cytochrome P450 2C19): 0.631 µM (inconclusive)
Compound: Cc1cc(C)c(S(=O)(=O)n2ccc(-c3ccc(OCCN(C)c4ccccn4)cc3)n2)c(C)c1

IC50 [2]: 98.5 µM (active)
Compound: COC(=O)CCNCCSc1nnc(-c2ccco2)n1Cc1ccccc1

EC50 [3]: 18.4 µM (active)
Compound: CCOC(=O)/C(C#N)=C(C)/C=C1\Sc2ccccc2N1CC

AC50 (Cytochrome P450 2C9): 0.112 µM (inconclusive) | AC50 (Cytochrome P450 2C19): 39.8 µM (inconclusive)
Compound: COc1ccccc1Cn1c(=S)[nH]c2cc(C(=O)N3CCN(C)CC3)ccc2c1=O

IC50 [2]: 41.6 µM (active)
Compound: COc1cc(/C(C)=N\NC(=O)CSc2nc3ccccc3n2C)ccc1O

IC50 [2]: 52.6 µM (active)
Compound: CCOC(=O)N/N=C/c1ccc(N2CCOCC2)s1

EC50 [3]: > 53 µM (inactive)
Compound: COC(=O)c1cc2sc(Cl)cc2n1CC(=O)Nc1ccc(OC)c(OC)c1OC

IC50 [2]: 102 µM (active)
Compound: CCOC(=O)c1c(NC=C2C(=O)CCCC2=O)sc(C)c1C

AC50 (Cytochrome P450 2D6): 11.2 µM (inconclusive) | AC50 (Cytochrome P450 2C9): 5.01 µM (inconclusive) | AC50 (Cytochrome P450 1A2): 28.2 µM (inconclusive)
Compound: CCC(=O)Nc1cc(-c2nn(C)c(=O)c3ccccc23)ccc1N1CCCCC1

AC50 (Cytochrome P450 2C9): 28.2 µM (inconclusive) | AC50 (Cytochrome P450 1A2): 0.00631 µM (inconclusive) | AC50 (Cytochrome P450 2C19): 14.1 µM (inconclusive)
Compound: CCCS(=O)(=O)N1CCCC(C(=O)NCCCN2CCN(c3cccc(Cl)c3)CC2)C1 (configuration not stated)

AC50 (Cytochrome P450 2C9): 7.94 µM (inconclusive)
Compound: O=S(=O)(O)c1cc(O)c2c(O)c(/N=N\c3cccc4ccccc34)c(S(=O)(=O)O)cc2c1

AC50 (Cytochrome P450 2D6): 39.8 µM (inconclusive) | AC50 (Cytochrome P450 2C9): 31.6 µM (inconclusive) | AC50 (Cytochrome P450 1A2): 25.1 µM (inconclusive)
Compound: COC(=O)N1CCC2(CCCN(c3ccccn3)C2)CC1

AC50 (Cytochrome P450 2C9): 7.94 µM (inconclusive)
Compound: O=C(CSCc1c(Cl)cccc1Cl)NCc1cccnc1

EC50 [3]: 10.7 µM (active)
Compound: CC(C(=O)Nc1ccc2c(c1)OCCO2)c1ccc([N+](=O)[O-])cc1 (configuration not stated)

IC50 [2]: 40.2 µM (active)
Compound: CCOc1cc(/C=N/Nc2nc(O)nnc2C)ccc1O

AC50 (Cytochrome P450 2D6): 17.8 µM (inconclusive) | AC50 (Cytochrome P450 2C9): 31.6 µM (inconclusive)
Compound: COc1ccc2[nH]c(SCC(=O)c3ccco3)nc2c1

AC50 (Cytochrome P450 2D6): 22.4 µM (inconclusive) | AC50 (Cytochrome P450 2C9): 35.5 µM (inconclusive)
Compound: CCc1nnc(S)n1/N=C/c1ccc2c(c1)OCO2

AC50 (Cytochrome P450 2C9): 20 µM (inconclusive) | AC50 (Cytochrome P450 2C19): 39.8 µM (inconclusive)
Compound: COC(=O)N1CCC[C@@]2(CCN(c3ccccn3)C2)C1

AC50 (Cytochrome P450 2C9): 22.4 µM (inconclusive) | AC50 (Cytochrome P450 1A2): 25.1 µM (inconclusive)
Compound: COc1ccc2c(c1)C(=O)N(c1ccccc1)C(=O)C2

Second part, the compound before the results:

Compound: Cc1ccc(-c2ccc(/C=N/n3cnnc3)o2)cc1Cl
CC50 [4]: 49.7 µM (active)

Compound: CC(C)(C)NC(=O)C(c1ccncc1)N(Cc1ccc(F)cc1)C(=O)c1ccc(-c2ccccc2)[nH]1 (configuration not stated)
CC50 [4]: 14.6 µM (active) | EC50 [5]: > 60 µM (inconclusive) | EC50 [6]: 0.681 µM (active)

Compound: CCc1ccccc1NS(=O)(=O)c1ccc(OC)c2ncccc12
CC50 [4]: 16 µM (active)

Compound: Cc1ccc2sc(O)nc2c1
CC50 [4]: 19.7 µM (active)

Compound: Cc1nc(SCc2ccccc2F)c2cnn(-c3ccccc3)c2n1
CC50 [4]: 28.5 µM (active)

Compound: CCOc1ccc(NC2c3ccccc3C(=O)N2Cc2ccc3c(c2)OCO3)cc1 (configuration not stated)
CC50 [4]: 14.6 µM (active)

Compound: Nc1ccc(Sc2ccc(N)cc2)cc1 [4,4'-THIODIANILINE]
IC50 [2]: 13.2 µM (active)

Compound: CCN(CC)Cc1c(C(=O)N/N=C/c2cccc(OCc3cccc(Cl)c3)c2)nnn1-c1nonc1N
CC50 [4]: 18.3 µM (active)

Compound: Cc1c(OCC(=O)NCc2ccccn2)ccc2c3c(c(=O)oc12)CCCC3
CC50 [4]: 21.2 µM (active)

Compound: COc1ccccc1NC(=O)COc1ccc(Br)cc1CO
CC50 [4]: > 50 µM (active)

Compound: COc1ccc(C2C(C(=O)N3CCOCC3)c3ccccc3C(=O)N2c2ccc(OC)cc2)cc1 (configuration not stated)
AC50 (Cytochrome P450 2C9): 0.501 µM (inconclusive)

Compound: Cc1nc2ccc3nc(NC(=O)C4COc5ccccc5O4)sc3c2s1 (configuration not stated)
CC50 [4]: 41.4 µM (active)

Compound: CCOc1ccccc1C1CC(c2cccc(NS(C)(=O)=O)c2)=NN1C(=O)c1ccccc1 (configuration not stated)
CC50 [4]: 35.5 µM (active)

Compound: COC(=O)COc1ccc(Oc2nc(SC)nc(N(C)C)n2)nn1
EC50 [3]: > 53 µM (inactive)

Compound: N#Cc1nc(COc2ccccc2Cl)oc1N1CCCC1
CC50 [4]: 41.5 µM (active)
